“And” between values parts separate entries of the source, which are not always exact repeats. Equal entries are not always repeated.
Legend:
IOP of patients = test: Randomized dose study of anecortave acetate AJD 3, 15, 30 mg vs vehicle, Example 6; assay type: in vivo, human (patients)
Experimental: Eligible patients were randomized into four groups to receive AJD as follows: • Anecortave acetate vehicle, 0.5 mL (21 patients) • Anecortave acetate 3 mg (0.5 mL, 0.6% suspension) (22 patients) • Anecortave acetate 15 mg (0.5 mL, 3% suspension) (20 patients) • Anecortave acetate 30 mg (0.5 mL, 6% suspension) (22 patients).
The site of the AJD injection was 3-5 mm from the limbus, inferiorly (between 4 and 8 o'clock, FIG. 1), and the drug was injected slowly (30-90 sec) using a 30 gauge needle.

[1] = test system: myocilin expression in trabecular meshwork cells; conditions: cultured trabecular meshwork cells; cited from earlier work
[2] = test system: IOP of patients with primary open angle glaucoma; test: Single anterior juxtascleral depot (AJD) of anecortave acetate in glaucoma patients, Example 2; assay type: in vivo, human (patients); conditions: single ~24 mg AJD
From the text: Methods: An investigator IND and IRB approval was obtained. All patients gave informed consent. […] Prior glaucoma medications were not changed throughout study. Results: Six subjects with glaucoma and IOP≧23 mmHg (POAG [4], PDS [1], PXF [1]) mean age 59+/−8 years. Mean C/D ratio 0.8+/−0.2. Prior glaucoma medications included prostaglandins, beta blockers and/or alpha agonists (four on 1, one on 3, and one on 4). Mean pretreatment IOP was 31.3+/−11.3 mmHg. […] Patients were followed for twelve (12) months. The IOP-lowering effects peaked at approximately one month. The duration of effectiveness of the anecortave acetate was at least twelve (12) months. […] Treatment with prior glaucoma medications was discontinued for two patients due to the surprising IOP-lowering effects of the juxtasclerally administered anecortave acetate. This new method of treatment obviates problems with eye drops and many issues with compliance. Clinically meaningful additional medium-term IOP reduction is possible with a single anterior juxtascleral depot injection of anecortave acetate, much more than presently obtained with any currently available adjunctive medications.

[3] = test system: IOP elevation associated with topical dexamethasone; conditions: topical administration, rabbits; cited from earlier work
[4] = test system: IOP of patients with glaucoma caused by intravitreal injections of glucocorticoids; test: Single administration of anecortave acetate in patients with glaucoma caused by intravitreal glucocorticoids, Example 3; assay type: in vivo, human (patients)
From the text: All patients were on maximal tolerated medical therapy for glaucoma and continued on their pre-study medications for the duration of the study.
In this group of eight eyes, three of which had prior intraocular surgery, and all of which were on at least three different types of glaucoma medications (maximum 6 medications and a mean of 4.1 different drug classes) the IOP decrease was seen as early as one week (mean 11.4 mm Hg), and appeared to reach a maximum decrease at three weeks (mean 16.4 mm Hg). FIG. 3 illustrates the decrease in IOP observed in these patients for twenty months.

[5] = test system: IOP of Dutch Belted rabbits having elevated IOP; test: Brinzolamide anterior sub-Tenon's or topical administration in rabbits with elevated IOP, Example 4; assay type: in vivo; conditions: for mean percent IOP change from baseline compared to BSS control: over 7 days
Experimental: Eyes of Dutch Belted rabbits having elevated IOP were injected in the anterior segment with a carbonic anhydrase inhibitor.
Methods: Baseline IOP was measured daily for 5 days and averaged. Seven rabbits received one anterior sub-Tenon's capsule administration of 800 μl of a non-optimized 1% ophthalmic suspension of brinzolamide (AZOPT®). Seven rabbits received a 1% ophthalmic suspension of brinzolamide (AZOPT®) delivered topically once per day for seven days. Seven rabbits received one anterior sub-Tenon's administration of 800 μl of BSS®. IOP was monitored daily at 2 hours after topical drops were administered, for seven days, and weekly thereafter until IOP measurements remained the same as baseline for two measurements. […] Mean pretreatment IOP was 27.41 mm Hg. Mean change in IOP for this group was +0.18 mm Hg. Rabbits receiving either daily topical administration or subtenon's injection of brinzolamide experienced sustained lowering of IOP. For the topical administration group mean pretreatment IOP was 28.37 mm Hg. Mean change in IOP for this group was −2.48 mm Hg. […] For the group receiving one anterior subtenon's administration of a 1% brinzolamide ophthalmic suspension the mean pretreatment IOP was 27.44 mm Hg. Mean change in IOP for this group was −1.85 mm Hg. […] (See FIG. 4). […] Longer duration of action of the brinzolamide suspension from the subtenon's capsule could be achieved using higher concentration suspensions (e.g. 5% or 10%) or via encapsulation in sustained release dose forms such as microspheres.

IOP = conditions: intravitreal injection (Singh et al. 2004); cited from earlier work
[6] = mean pretreatment IOP 31.3+/-11.3 mmHg

CC(=O)OCC(=O)[C@@]1(O)CC[C@H]2[C@@H]3CCC4=CC(=O)CC[C@]4(C)C3=CC[C@@]21C [anecortave acetate, 4, 9(11)-pregnadien-17∝,21-diol-3,20-dione-21-acetate]
patients who maintained an IOP of ≦21 mm Hg for 3 months (IOP of patients; 3 mg group (22 patients)): 7 patients | patients who maintained an IOP of ≦21 mm Hg for 3 months (IOP of patients; 15 mg group (20 patients)): 6 patients | patients who maintained an IOP of ≦21 mm Hg for 3 months (IOP of patients; 30 mg group (22 patients)): 11 patients | duration of IOP reductions after a single administration (IOP of patients; p<0.05 for all concentrations relative to vehicle at month 3, ANOVA): ≥ 3 months | effect on dexamethasone induced myocilin expression [1]: inhibition | mean IOP decrease at 3 months (percent) [2]: 38.5%+/−21% | time at which IOP-lowering effects peaked [2]: approximately one | clinically significant adverse events ([2]; followed 12 months): No clinically significant adverse events occurred | duration of effectiveness ([2]; followed 12 months): ≥ 12 months | patients with >25% IOP decrease at 3 months ([2]; prior glaucoma medications unchanged, six subjects, IOP>=23 mmHg): Five of six | mean IOP at 3 months [2, 6]: 16.4+/−6 mm Hg | mean IOP decrease at 3 months [2, 6]: 10.8+/−7.0 mmHg | patients whose prior glaucoma medications were discontinued due to IOP-lowering effect ([2]; six subjects): two | effect on IOP elevation associated with topical dexamethasone [3]: decreases the IOP elevation | IOP, individual eyes, 1 week ([4]; 1 week after single ~24 mg, baselines 34-57): 30 mm Hg (2×) and 34 mm Hg (2×) and 24 mm Hg (2×) and 23 mm Hg | Mean IOP, 1 week ([4]; 1 week, mean baseline 40.125): 28.43 mm Hg | IOP, individual eyes, 2 mon ([4]; 2 mon after single ~24 mg): 30 mm Hg and 24 mm Hg and 16 mm Hg and 19 mm Hg and 23 mm Hg | Mean IOP, 2 mon ([4]; 2 mon, mean baseline 40.125): 22 mm Hg | IOP, individual eyes, 2 weeks ([4]; 2 weeks after single ~24 mg, baselines 34-57): 28 mm Hg (2×) and 32 mm Hg and 19 mm Hg (2×) and 23 mm Hg and 35 mm Hg | Mean IOP, 2 weeks ([4]; 2 weeks, mean baseline 40.125): 24.8 mm Hg | IOP, individual eyes, 3 mon ([4]; 3 mon after single ~24 mg): 32 mm Hg and 18 mm Hg (2×) and 21 mm Hg and 19 mm Hg | Mean IOP, 3 mon ([4]; 3 mon, mean baseline 40.125): 19.3 mm Hg | IOP, individual eyes, 3 weeks ([4]; 3 weeks after single ~24 mg): 30 mm Hg and 17 mm Hg and 19 mm Hg (2×) and 37 mm Hg | Mean IOP, 3 weeks ([4]; 3 weeks, mean baseline 40.125): 24.4 mm Hg | IOP, individual eyes, 4 mon ([4]; 4 mon after single ~24 mg): 17 mm Hg and 16 mm Hg and 23 mm Hg and 21 mm Hg | Mean IOP, 4 mon ([4]; 4 mon, mean baseline 40.125): 20 mm Hg | IOP, individual eyes, 4 weeks ([4]; 4 weeks after single ~24 mg): 30 mm Hg (2×) and 28 mm Hg and 31 mm Hg and 14 mm Hg and 21 mm Hg and 19 mm Hg and 36 mm Hg | Mean IOP, 4 weeks ([4]; 4 weeks, mean baseline 40.125): 26.1 mm Hg | IOP, individual eyes, 5 mon ([4]; 5 mon after single ~24 mg): 15 mm Hg and 17 mm Hg and 21 mm Hg and 22 mm Hg | Mean IOP, 5 mon ([4]; 5 mon, mean baseline 40.125): 20 mm Hg | IOP, individual eyes, 6 mon ([4]; 6 mon after single ~24 mg): 19 mm Hg (3×) and 15 mm Hg | Mean IOP, 6 mon ([4]; 6 mon, mean baseline 40.125): 17.6 mm Hg | IOP, individual eyes, 6.2 mon ([4]; 6.2 mon after single ~24 mg): 26 mm Hg | IOP, individual eyes, 6.5 mon ([4]; 6.5 mon after single ~24 mg): 38 mm Hg | IOP, individual eyes, 7 mon ([4]; 7 mon after single ~24 mg): 17 mm Hg and 18 mm Hg (2×) | Mean IOP, 7 mon ([4]; 7 mon, mean baseline 40.125): 17.6 mm Hg | Mean IOP, 8 mon ([4]; 8 mon): 26.5 mm Hg | IOP, individual eyes, 8 mon ([4]; 8 mon after single ~24 mg): 31 mm Hg and 22 mm Hg | Mean IOP, 9 mon ([4]; 9 mon): 17.3 mm Hg | IOP, individual eyes, 9 mon ([4]; 9 mon after single ~24 mg): 15 mm Hg and 19 mm Hg and 18 mm Hg | Mean IOP, 12 mon ([4]; 12 mon): 19.6 mm Hg | IOP, individual eyes, 12 mon ([4]; 12 mon after single ~24 mg): 15 mm Hg and 22 mm Hg (2×) | Mean IOP, 13 mon ([4]; 13 mon): 19.6 mm Hg | IOP, individual eyes, 13 mon ([4]; 13 mon after single ~24 mg): 18 mm Hg and 22 mm Hg and 19 mm Hg | Mean IOP, 14 mon ([4]; 14 mon): 25.5 mm Hg | IOP, individual eyes, 14 mon ([4]; 14 mon after single ~24 mg): 25 mm Hg and 26 mm Hg | Mean IOP, 15 mon ([4]; 15 mon): 24 mm Hg | IOP, individual eyes, 15 mon ([4]; 15 mon after single ~24 mg): 26 mm Hg and 22 mm Hg | Mean IOP, 17 mon ([4]; 17 mon): 18.5 mm Hg | IOP, individual eyes, 17 mon ([4]; 17 mon after single ~24 mg): 19 mm Hg and 18 mm Hg | Mean IOP, 18 mon ([4]; 18 mon): 18 mm Hg | IOP, individual eyes, 18 mon ([4]; 18 mon after single ~24 mg): 19 mm Hg and 17 mm Hg | IOP, individual eyes, 20 mon ([4]; 20 mon after single ~24 mg): 16 mm Hg | IOP decrease in all eyes ([4]; eight eyes, single ~24 mg): All eyes had marked IOP decrease | mean IOP decrease at one week ([4]; eight eyes, single ~24 mg): 11.4 mm Hg | mean IOP decrease at three weeks (maximum decrease) ([4]; eight eyes, single ~24 mg): 16.4 mm Hg | IOP decrease in one eye at 2 months ([4]; eye that needed filtration surgery, resultant IOP 30 mm Hg): 45% | time for which recurrence of elevated IOP was prevented ([4]; remaining five eyes, IOP elevation due to triamcinolone reversed): up to 12 months | adverse events ([4]; single ~24 mg): without adverse events | duration of IOP reductions ([4]; single ~24 mg): at least 6 months | patients avoiding glaucoma filtration surgery ([4]; single ~24 mg): 75%

CCN[C@H]1CN(CCCOC)S(=O)(=O)c2sc(S(N)(=O)=O)cc21 [brinzolamide]
maximum IOP lowering from baseline ([5]; 1% suspension topically once per day for seven days): 11.1% | Mean change in IOP ([5]; 1% suspension topically once per day for seven days, mean pretreatment IOP 28.37 mm Hg): −2.48 mm Hg | time of peak levels of IOP change ([5]; both topical and subtenon's groups): ≤ 3 days | maximum percent IOP lowering ([5]; one anterior sub-Tenon's administration of 800 μl 1% suspension): 15.9% | Mean change in IOP ([5]; one anterior sub-Tenon's administration of 800 μl 1% suspension, mean pretreatment IOP 27.44 mm Hg): −1.85 mm Hg | mean percent IOP change from baseline compared to BSS control ([5]; subtenon's injection group): statistically lower at all points | mean percent IOP change from baseline compared to BSS control ([5]; topical administration group): statistically lower at all points

CC1(C)O[C@@H]2C[C@H]3[C@@H]4CCC5=CC(=O)C=C[C@]5(C)[C@@]4(F)[C@@H](O)C[C@]3(C)[C@]2(C(=O)CO)O1 [triamcinolone, triamcinolone acetonide]
IOP reached (IOP): ~60 mm Hg | earliest onset of IOP elevation (IOP): 4 days
